The values that follow are results of earlier work, collected in US9212386B2, “Enzymatic cleavage based lateral flow assays” (Rapid Pathogen Screening, Inc., priority 2011, dated 2015).

*: point of attachment. FITC = O=C1OC2(c3ccc(O)cc3Oc3cc(O)ccc32)c2ccc(NC(=S)*)cc21; Ahx = NCCCCCC(=O)O

For data set [1], the system named is Bacterial Enzyme Targets (bacterial supernatants of tested micro-organisms). The following applies: for In vitro Cleavage Activity (using FRET): micro-organisms whose enzymes cleave the peptide.
For data set [2], the system named is Bacterial Enzyme Targets (tested micro-organisms). The following applies: micro-organisms whose enzymes cleave the peptide.

As to FITC-Ahx-Leu-DVal-Lys-DABCYL [BikKam 6], the “In vitro Cleavage Activity (using FRET)” value in data set [1] is on record as “B. anthracis (moderate)”.

Consider “FITC-Ahx-Gly-Gly-Gly-Gly-Lys-DABCYL ({FITC-Ahx}-GGGGK-{DABCYL})”, for which, in data set [1], the “In vitro Cleavage Activity (using FRET)” value is on record as “P. aeruginosa”. Moreover, in data set [2], the “Ex vivo Cleavage activity (using FRET)” value was “P. aeruginosa”.

Turning to FITC-Ahx-Leu-DLeu-Lys-DABCYL [BikKam 1], in data set [1], the “selectivity of peptide cleavage” value is given as “highly selective for B. anthracis” and the “In vitro Cleavage Activity (using FRET)” value is “B. anthracis”.
